Where a name gives a salt, the structure may show the parent alone. Read-outs that look alike come from different tables or passages of the source.
Molecular target: human σ1 receptor (Homo sapiens, UniProt Q99720)
Assay: biochemical
Type: binding
Set-up: μ and σ1 dual binding: key to the marks not given beside the values
[1] = read-out: μ and σ1 dual binding
[2] = combined class from Ki-σ1 (human σ1 receptor, A1) and Ki-μ (human μ-opioid receptor, A2) radioligand binding

Sequence of human σ1 receptor (Q99720 whole entry): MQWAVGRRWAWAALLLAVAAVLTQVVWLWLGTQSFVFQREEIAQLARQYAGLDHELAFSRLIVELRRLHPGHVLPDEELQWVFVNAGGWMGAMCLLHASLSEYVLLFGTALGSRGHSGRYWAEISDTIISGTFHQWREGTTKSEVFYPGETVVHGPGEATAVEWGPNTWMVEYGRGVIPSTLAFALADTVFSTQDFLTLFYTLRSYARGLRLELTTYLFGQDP

**Q.** For CC1CN(Cc2ccn(C)n2)CC2(CCN(CCc3ccccc3)CC2)O1 (stereo not shown) [Example 328, 2-methyl-4-((1-methyl-1H-pyrazol-3-yl)methyl)-9-phenethyl-1-oxa-4,9-diazaspiro[5.5]undecane dihydrochloride], which “μ and σ1 dual binding” value is on record?
**A.** ++

**Q.** With Oc1ccccc1CCN1CCC2(CC1)CN(Cc1ccccn1)CCO2 [Example 329, 2-(2-(4-(pyridin-2-ylmethyl)-1-oxa-4,9-diazaspiro[5.5]undecan-9-yl)ethyl)phenol hydrochloride] as the molecule, how does the Ki [1] read?
**A.** < 100 nM

**Q.** Which Ki [1] does the source give for CC1CN(Cc2ccccn2)CC2(CCN(CCc3ccccc3)CC2)O1 (stereo not shown) [Example 330, 2-methyl-9-phenethyl-4-(pyridin-2-ylmethyl)-1-oxa-4,9-diazaspiro[5.5]undecane hydrochloride] here?
**A.** < 100 nM

**Q.** How did the “μ and σ1 dual binding” value turn out when CC1CN(CCc2cccnc2)CC2(CCN(CCc3ccccc3)CC2)O1 (stereo not shown) [Example 331, 2-methyl-9-phenethyl-4-(2-(pyridin-3-yl)ethyl)-1-oxa-4,9-diazaspiro[5.5]undecane hydrochloride] was run?
**A.** ++

**Q.** How did the “μ and σ1 dual binding” value [2] turn out when COc1ccc(CCN2CCC3(CC2)CN(c2ccccc2)CCO3)cc1 [Example 332, 9-(4-methoxyphenethyl)-4-phenyl-1-oxa-4,9-diazaspiro[5.5]undecane] was run?
**A.** ++

**Q.** Which “μ and σ1 dual binding” value does the source give for COc1cccc(N2CCOC3(CCN(CCc4ccccc4)CC3)C2)c1.Cl [Example 333, 4-(3-methoxyphenyl)-9-phenethyl-1-oxa-4,9-diazaspiro[5.5]undecane hydrochloride] here?
**A.** ++

**Q.** COc1ccccc1CCN1CCC2(CC1)CN(c1ccccc1)CCO2.Cl [Example 334, 9-(2-methoxyphenethyl)-4-phenyl-1-oxa-4,9-diazaspiro[5.5]undecane hydrochloride] was tested. Which “μ and σ1 dual binding” value did it give?
**A.** ++

**Q.** CC1CN(Cc2ccccc2)CC2(CCN(CCc3ccccc3)CC2)O1 (stereo not shown) [Example 335, 4-benzyl-2-methyl-9-phenethyl-1-oxa-4,9-diazaspiro[5.5]undecane dihydrochloride] was tested. Which Ki [1] did it give?
**A.** < 100 nM

**Q.** With c1ccc(CCN2CCC3(CC2)CN(Cc2ccccn2)CCO3)cc1 [Example 336, 9-phenethyl-4-(pyridin-2-ylmethyl)-1-oxa-4,9-diazaspiro[5.5]undecane dihydrochloride] as the molecule, how does the Ki [1] read?
**A.** < 100 nM

**Q.** c1ccc(CCN2CCC3(CC2)CN(CCc2ccccc2)CCO3)cc1 [Example 337, 4,9-diphenethyl-1-oxa-4,9-diazaspiro[5.5]undecane dihydrochloride] was tested. Which “μ and σ1 dual binding” value did it give?
**A.** ++

**Q.** Nc1cccc(CCN2CCC3(CC2)CN(Cc2ccccc2)CCO3)c1 [Example 338, 3-(2-(4-benzyl-1-oxa-4,9-diazaspiro[5.5]undecan-9-yl)ethyl)aniline] was tested. Which Ki [1] did it give?
**A.** > 500 nM

**Q.** How did the Ki [1] turn out when CC(=O)Nc1cccc(CCN2CCC3(CC2)CN(Cc2ccccc2)CCO3)c1 [Example 339, N-(3-(2-(4-benzyl-1-oxa-4,9-diazaspiro[5.5]undecan-9-yl)ethyl)phenyl)acetamide] was run?
**A.** < 100 nM

**Q.** Which Ki does the source give for CC1COC2(CCN(CCc3ccccc3)CC2)CN1c1ccccc1 (stereo not shown) [Example 340, 3-methyl-9-phenethyl-4-phenyl-1-oxa-4,9-diazaspiro[5.5]undecane hydrochloride] here?
**A.** < 500 nM

**Q.** How did the “μ and σ1 dual binding” value [2] turn out when O=C1N(c2cccnc2C(F)(F)F)CC2(CCN(CCc3cc(F)ccc3F)CC2)OC12CC2 [Example 341, 8-(2,5-difluorophenethyl)-12-(2-(trifluoromethyl)pyridin-3-yl)-4-oxa-8,12-diazadispiro[2.1.5.3]tridecan-13-one] was run?
**A.** ++

**Q.** O=C1N(c2cnccc2C(F)(F)F)CC2(CCN(CCc3cc(F)ccc3F)CC2)OC12CC2 [Example 342, 8-(2,5-difluorophenethyl)-12-(4-(trifluoromethyl)pyridin-3-yl)-4-oxa-8,12-diazadispiro[2.1.5.3]tridecan-13-one] was tested. Which Ki [1] did it give?
**A.** < 500 nM

**Q.** How did the Ki [1] turn out when O=C1N(c2ncccc2C(F)(F)F)CC2(CCN(CCc3cc(F)ccc3F)CC2)OC12CC2 [Example 343, 8-(2,5-difluorophenethyl)-12-(3-(trifluoromethyl)pyridin-2-yl)-4-oxa-8,12-diazadispiro[2.1.5.3]tridecan-13-one] was run?
**A.** < 500 nM

**Q.** Fc1cccnc1CCN1CCC2(CC1)CN(Cc1ccccc1)CC1(CC1)O2 [Example 344, 12-benzyl-8-(2-(3-fluoropyridin-2-yl)ethyl)-4-oxa-8,12-diazadispiro[2.1.5.3]tridecane] was tested. Which Ki [1] did it give?
**A.** < 100 nM

**Q.** For COC(=O)CCN1CCC2(CC1)CN(Cc1ccccc1)C(=O)C1(CC1)O2 [Example 346, methyl 3-(12-benzyl-13-oxo-4-oxa-8,12-diazadispiro[2.1.5.3]tridecan-8-yl)propanoate], which “μ and σ1 dual binding” value [2] is on record?
**A.** ++

**Q.** Which Ki does the source give for COC(=O)CCN1CCC2(CC1)CN(Cc1ccccc1)CC1(CC1)O2 [Example 347, methyl 3-(12-benzyl-4-oxa-8,12-diazadispiro[2.1.5.3]tridecan-8-yl)propanoate] here?
**A.** < 500 nM

**Q.** For COC(=O)CCN1CCC2(CC1)CN(c1ccccc1)C(=O)C1(CC1)O2 [Example 348, methyl 3-(13-oxo-12-phenyl-4-oxa-8,12-diazadispiro[2.1.5.3]tridecan-8-yl)propanoate], which Ki [1] is on record?
**A.** > 500 nM

**Q.** O=C1CO[C@@]2(CCN(Cc3ccccc3)C2)CN1c1ccccc1 [Example 349, (R)-2-benzyl-9-phenyl-6-oxa-2,9-diazaspiro[4.5]decan-8-one] was tested. Which Ki [1] did it give?
**A.** > 500 nM

**Q.** For O=C1CO[C@]2(CCN(Cc3ccccc3)C2)CN1c1ccccc1 [Example 350, (S)-2-benzyl-9-phenyl-6-oxa-2,9-diazaspiro[4.5]decan-8-one], which Ki [1] is on record?
**A.** > 500 nM

From patent US10703765B2 (priority 2014, dated 2020)
